In experiment [1] the test system is α-isomaltosylglucosaccharide-forming enzyme. Kind of experiment: Influence of metal ions on α-isomaltosylglucosaccharide-forming enzyme activity (A19 strain). The experiment is classed as biochemical, Arthrobacter globiformis A19 strain. Particulars: for Relative activity (%): in the presence of 1 mM of each metal-ion, None = 100; for effect on the enzyme activity, in words: 1 mM, Table 19.

Experiment [2] deals with α-isomaltosyl-transferring enzyme. Kind of experiment: Influence of metal ions on α-isomaltosyl-transferring enzyme activity (S1 strain). Particulars: for Relative activity (%): in the presence of 1 mM of each metal-ion, None = 100; for effect on the enzyme activity, in words: 1 mM, Table 21. It counts as biochemical, Arthrobacter ramosus S1 strain. How it is done: (§1) The activity of α-isomaltosyl-transferring enzyme was assayed by dissolving panose in 100 mM acetate buffer (pH 6.0) to give a concentration of 2% (w/v) for a substrate solution, adding a 0.5 ml of an enzyme solution to 0.5 ml of the substrate solution, enzymatically reacting the mixture solution at 35° C. for 30 min, suspending the enzymatic reaction by boiling the solution for 10 min, and quantifying glucose, among the cyclotetrasaccharide and glucose formed mainly in the reaction mixture, by the glucose oxidase method. One unit activity of α-isomaltosyl-transferring enzyme is defined as the enzyme amount that forms one micromole of glucose per minute under the above enzymatic reaction conditions. Throughout the specification, the enzymatic activity of α-isomaltosyl-transferring enzyme means the unit(s) assayed as above.
(§2) The influence of metal ions on the activity of α-isomaltosyl-transferring enzyme was examined in the presence of 1 mM of each metal-ion according to the assay for its enzyme activity.

Experiment [3] has the same test system. In words: Influence of metal ions on α-isomaltosyl-transferring enzyme activity (C9 strain). It counts as biochemical, Bacillus globisporus C9 strain. Particulars: for Relative activity (%): in the presence of 1 mM of each metal-ion, None = 100; for effect on the enzyme activity, in words: 1 mM, Table 4. How it is done: as §1, §2
Experiment [4] shares this test system. In words: Influence of metal ions on α-isomaltosyl-transferring enzyme activity (N75 strain). The experiment is classed as biochemical, Bacillus globisporus N75 strain. Particulars: for Relative activity (%): in the presence of 1 mM of each metal-ion, None = 100; for effect on the enzyme activity, in words: 1 mM, Table 14. How it is done:
as §1
The influence of temperature and pH on the activity of α-isomaltosyl-transferring enzyme was examined in accordance with the assay for its enzyme activity. […] The thermal stability of the enzyme was determined by incubating the testing enzyme solutions in the form of 20 mM acetate buffer (pH 6.0) at prescribed temperatures for 60 min, cooling the resulting enzyme solutions with water, and assaying the remaining enzyme activity of each solution. The pH stability of the enzyme was determined by keeping the testing enzyme solutions in the from of 50 mM buffers having prescribed pHs at 4° C. for 24 hours, adjusting the pH of each solution to 6.0, and assaying the remaining enzyme activity of each solution. […] The influence of metal ions on the activity of α-isomaltosyl-transferring enzyme was examined in the presence of 1 mM of each metal-ion according to the assay for its enzyme activity.

The test system is the same in experiment [5]. In words: Influence of metal ions on α-isomaltosyl-transferring enzyme activity (C11 strain). The settings on record: for Relative activity (%): in the presence of 1 mM of each metal-ion, None = 100; for effect on the enzyme activity, in words: 1 mM, text on Table 8. It counts as biochemical, Bacillus globisporus C11 strain. As to the method:
as §1, §2

The subject of experiment [6] is α-isomaltosylglucosaccharide-forming enzyme. In words: Influence of metal ions on α-isomaltosylglucosaccharide-forming enzyme activity (C11 strain). It counts as biochemical, Bacillus globisporus C11 strain. The settings on record: for effect on the enzyme activity, in words: 1 mM, Table 7; for Relative activity (%): in the presence of 1 mM of each metal-ion, None = 100.

The test system is the same in experiment [7]. Kind of experiment: Influence of metal ions on α-isomaltosylglucosaccharide-forming enzyme activity (C9 strain). It counts as biochemical, Bacillus globisporus C9 strain. Particulars: for effect on the enzyme activity, in words: 1 mM, Table 3; for Relative activity (%): in the presence of 1 mM of each metal-ion, None = 100. How it is done: (§3) About 20 L of a fresh preparation of the same liquid culture medium as used in the above seed culture were placed in a 30-L fermentor, sterilized by heating, and then cooled to 27° C. and inoculated with 1% (v/v) of the seed culture, followed by culturing at 27° C. and pH 6.0 to 8.0 for 48 hours under aeration-agitation conditions. […] These activities were assayed as follows: The activity of α-isomaltosylglucosaccharide-forming enzyme was assayed by dissolving maltotriose in 100 mM acetate buffer (pH 6.0) to give a concentration of 2% (w/v) for a substrate solution, adding a 0.5 ml of an enzyme solution to a 0.5 ml of the substrate solution, enzymatically reacting the mixture solution at 35° C. for 60 min, suspending the enzymatic reaction by boiling the solution for 10 min, and quantifying maltose, among the isomaltosyl maltose and maltose formed mainly in the reaction mixture, on HPLC disclosed in Experiment 1. One unit activity of α-isomaltosylglucosaccharide-forming enzyme is defined as the enzyme amount that forms one micromole of maltose per minute under the above enzymatic reaction conditions. Throughout the specification, the enzymatic activity of α-isomaltosylglucosaccharide-forming enzyme means the unit(s) assayed as above.
(§4) The influence of metal ions on the activity of α-isomaltosylglucosaccharide-forming enzyme was examined in the presence of 1 mM of each metal-ion according to the assay for its enzyme activity.

For experiment [8] the test system is unchanged. In words: Influence of metal ions on α-isomaltosylglucosaccharide-forming enzyme activity (N75 strain). It counts as biochemical, Bacillus globisporus N75 strain. Particulars: for Relative activity (%): in the presence of 1 mM of each metal-ion, None = 100; for effect on the enzyme activity, in words: 1 mM, Table 13. As to the method: as §3, §4

Consider `[Al+3]` [Al^3+], for which the “Relative activity (%)” value in experiment [1] stood at 37%; in experiment [2], 93%; in experiment [3], 103%; in experiment [4], 94%; in experiment [5], 89%.

As for `[Ba+2]` [Ba^2+], the “effect on the enzyme activity, in words” value in experiment [6] and in experiment [7] was “also inhibited” each time. Besides, the “Relative activity (%)” value in experiment [6] is 65%; in experiment [7] it was 65%; in experiment [1] it was 99%; in experiment [2] it was 97%; in experiment [3], 102%; in experiment [4], 102%. The “Relative activity (%)” value in experiment [5] amounted to 90%; in experiment [8], 84%.

On to `[Ca+2]` [Ca^2+], for which the “effect on the enzyme activity, in words” value in experiment [6] is “activated”; in experiment [7], “activated”; in experiment [2] it was “neither activated”; in experiment [3] it was “not activated”; in experiment [4] it was “not activated”; in experiment [5] it was “not activated”. The “effect on the enzyme activity, in words” value in experiment [8] is given as “activated”. Also, the “Relative activity (%)” value amounted to 109% in experiment [6]; 115% in experiment [7]; 106% in experiment [1]; 103% in experiment [2]; 101% in experiment [3]; 100% in experiment [4]. The “Relative activity (%)” value came out at 91% in experiment [5] and 108% in experiment [8].

For the molecule `[Co+2]` [Co^2+], the “Relative activity (%)” value in experiment [6] amounted to 96%; in experiment [7], 100%; in experiment [1], 93%; in experiment [2] it was 91%; in experiment [3], 103%; in experiment [4], 92%. Also, the “Relative activity (%)” value is on record as 89% in experiment [5] and 93% in experiment [8].

On to `[Cu+2]` [Cu^2+], for which the “effect on the enzyme activity, in words” value in experiment [6] is given as “strongly inhibited”; in experiment [7], “strongly inhibited”; in experiment [1], “strongly inhibited”; in experiment [2], “also inhibited”; in experiment [3] it was “also inhibited”; in experiment [4], “also inhibited”. Also, the results for the “effect on the enzyme activity, in words” value in experiment [5] and in experiment [8] were “also inhibited” and “strongly inhibited”, respectively. Further, the “Relative activity (%)” value in experiment [6] came to 23%; in experiment [7], 15%; in experiment [1], 0%; in experiment [2] it was 2%; in experiment [3], 57%; in experiment [4], 15%. For the same molecule, the figures for the “Relative activity (%)” value in experiment [5] and in experiment [8] were 56% and 7%, respectively.

Consider `O=C(O)CN(CCN(CC(=O)O)CC(=O)O)CC(=O)O` [EDTA, ethylenediaminetetraacetic acid], for which the “effect on the enzyme activity, in words” value is “strongly inhibited” in experiment [6]; “strongly inhibited” in experiment [7]; “strongly inhibited” in experiment [1]; “neither activated” in experiment [2]; “not inhibited” in experiment [3]; “not inhibited” in experiment [4]. The “effect on the enzyme activity, in words” value in experiment [5] is reported as “not inhibited”; in experiment [8], “strongly inhibited”. The “Relative activity (%)” value came to 24% in experiment [6]; 20% in experiment [7]; 2% in experiment [1]; 91% in experiment [2]; 104% in experiment [3]; 92% in experiment [4]. For the same molecule, the results for the “Relative activity (%)” value in experiment [5] and in experiment [8] were 98% and 35%, respectively.

As to `[Fe+2]` [Fe^2+], the “Relative activity (%)” value in experiment [1] was 36%; in experiment [1] (listed as Fe^3+), 35%; in experiment [2] (listed as Fe^3+) it was 75%; in experiment [4] (listed as Fe^3+), 90%; in experiment [5] (listed as Fe^3+), 88%; in experiment [8] it was 82%.

For the molecule `[Hg+2]` [Hg^2+], the “effect on the enzyme activity, in words” value in experiment [6], in experiment [7], in experiment [1], in experiment [2], in experiment [3] and in experiment [4] was “strongly inhibited” each time. The “effect on the enzyme activity, in words” value in experiment [5] and in experiment [8] was “strongly inhibited” throughout. The “Relative activity (%)” value stood at 4% in experiment [6]; 4% in experiment [7]; 0% in experiment [1]; 0.1% in experiment [2]; 1% in experiment [3]; 0.5% in experiment [4]. Also, the entries for the “Relative activity (%)” value in experiment [5] and in experiment [8] were 2% and 1%, respectively.

Turning to `[Mn+2]` [Mn^2+], the “effect on the enzyme activity, in words” value in experiment [6], in experiment [7] and in experiment [8] was “activated” in each case. Moreover, the “Relative activity (%)” value stood at 142% in experiment [6], 111% in experiment [7], 106% in experiment [3] and 120% in experiment [8].

For `[Ni+2]` [Ni^2+], the “Relative activity (%)” value is listed as 46% in experiment [1]; 87% in experiment [2]; 102% in experiment [3]; 91% in experiment [4]; 89% in experiment [5].

`[Pb+2]` [Pb^2+]: the “Relative activity (%)” value in experiment [6] stood at 101%; in experiment [7], 103%; in experiment [1], 43%; in experiment [2] it was 85%; in experiment [3], 89%; in experiment [4], 69%. Moreover, the “Relative activity (%)” value in experiment [5] is reported as 74%; in experiment [8], 86%.

As to `[Sr+2]` [Sr^2+], the “effect on the enzyme activity, in words” value in experiment [6] and in experiment [7] was “also inhibited” each time. The “Relative activity (%)” value in experiment [6] is on record as 83%; in experiment [7], 80%; in experiment [1] it was 102%; in experiment [2], 101%; in experiment [3] it was 101%; in experiment [4] it was 91%. Moreover, the “Relative activity (%)” value in experiment [5] was found to be 93%; in experiment [8], 85%.

Take `[Zn+2]` [Zn^2+]: the “Relative activity (%)” value amounted to 91% in experiment [6]; 92% in experiment [7]; 56% in experiment [1]; 78% in experiment [2]; 88% in experiment [3]; 75% in experiment [4]. For the same molecule, the “Relative activity (%)” value in experiment [5] came to 83%; in experiment [8], 82%.

Source of the values: patent US7592160B2, “Processes for producing isomaltose and isomaltitol and use thereof” (Kabushiki Kaisha Hayashibara Seibutsu Kagaku Kenkyujo, priority 2001, dated 2009).
